Data as given in patent US12398117B2, “Heteroarylamidopyridinol derivative and pharmaceutical composition comprising same as active ingredient for prevention or treatment of autoimmune disease” (INNOVO THERAPEUTICS INC., priority 2019, dated 2025).

Assays:
[1] = tested on: adhesion of intestinal epithelial cells (HT-29) and monocytic cells (U937) induced by TNF-α; test: Inhibition of TNF-α-induced adhesion of monocytes and intestinal epithelial cells; format: cell-based, human; settings: Homo sapiens; for inhibition at 1 µM: test drug 1 μM, TNF-α 10 ng/mL, HT-29/U937, read-out: Inhibitory activity (%)
Protocol: HT-29 human colon cancer-derived epithelial cells and U937 human-derived monocytes were cultured in RPMI 1640 medium containing 10% FBS and 1% penicillin/streptomycin (PS) in a 37° C., 5% CO2 incubator. When the cells grew more than 80% of the bottom area of the culture flask, they were passaged at a ratio of 1:3 and used in this experiment. HT-29 cells were cultured in a 24-well plate at the density of 2×10^5 cells/cm^2, and the test drug was pretreated in a medium containing 1% FBS and 1% PS for 1 hour. Thereafter, 10 μg/mL of BCECF-AM was treated thereto and reacted at 37° C. for 30 minutes. U937 cells loaded with BCECF and TNF-α (10 ng/mL) were reacted with HT-29 cells previously treated with the test drug at 37° C. for 3 hours. Upon completion of the reaction, the medium was removed, and the culture flask was washed twice with PBS to remove non-adherent U937 cells. In the next step, the cells were lysed by treating with 0.1% Triton X-100 (0.1 M Tris) and reacted at room temperature for 30 minutes. Then, fluorescence was measured and quantified using a fluostar optima microplate reader (BMG Labtechnologies, Germany) (Carvalho et al., 1996; Thapa et al., 2008).

[2] = tested on: adhesion of intestinal epithelial cells (HT-29) and monocytic cells (U937) induced by IL-6; test: Inhibition of IL-6-induced adhesion of monocytes and intestinal epithelial cells; format: cell-based, human; settings: Homo sapiens, 3 h; test drug 1 μM; IL-6 10 ng/mL; HT-29/U937; read-out: inhibitory activity (%)
Protocol: The inhibitory activity test for intestinal epithelial cell-monocyte adhesion by IL-6 was performed using the same method as in the case of TNF-α. HT-29 cells were cultured in a 24-well plate at the density of 2×10^5 cells/cm^2, and the test drug was pretreated in a medium containing 1% FBS and 1% PS for 1 hour. Thereafter, 10 μg/mL of BCECF-AM was treated thereto and reacted at 37° C. for 30 minutes. U937 cells loaded with BCECF and IL-6 (10 ng/mL) were reacted with HT-29 cells previously treated with the test drug at 37° C. for 3 hours. Upon completion of the reaction, the medium was removed, and the culture flask was washed twice with PBS to remove non-adherent U937 cells. In the next step, the cells were lysed by treating with 0.1% Triton X-100 (0.1 M Tris) and reacted at room temperature for 30 minutes. Then, fluorescence was measured and quantified using a fluostar optima microplate reader (BMG Labtechnologies, Germany).

[3] = tested on: TNBS-induced inflammatory bowel disease rat model; test: Oral efficacy in TNBS-induced inflammatory bowel disease rat model; format: in vivo, Sprague Dawley rats
Protocol: (§1) Sprague Dawley rats aged 7-8 weeks were purchased from OrientBio (Korea), stabilized with general solid feed for 3 days, and then used in this experiment. Feed and water were freely supplied during the experiment period, and the temperature of the breeding room was maintained at 25±1° C. and the relative humidity at 50±10%. Lighting management was controlled in a 12-hour light-dark cycle by an automatic lighting controller.
After anesthetizing rats that had been fasted for 24 hours with diethyl ether, 0.8 mL of 5% TNBS diluted with 50v/v % ethanol was slowly injected into the lumen of the colon using a 1 mL syringe connected to a polyethylene catheter, and then, the rats were left standing for 60 seconds in an inverted position in order to prevent 5% TNBS from leaking into the anus. For the control group, only vehicle [50v/v % ethanol] was injected in the same manner as in the other groups (Thapa et al., 2008).
In order to investigate the effect of the drug, the drug was administered at a constant time every day for 5 days from the day after the TNBS treatment.
Changes in body weight of each rat were observed from the fasting stage to the TNBS administration and drug administration process using a digital mass meter.
The colon of the rat was extracted, and the tissue 5-6 cm away from the anus was cut into a length of 1 cm, and the weight of the tissue was measured.
The weighed rat tissues were fixed with 4% paraformaldehyde solution, and then transferred to 30% sucrose solution. When the tissues subside, they were taken out and cut into […] thick using a cryomicrotome (Microm HM 450, Thermo Fisher Scientific, Germany) and stored in a cryopreservation solution. After washing the tissue section with KPBS, the tissue section was attached to a slide glass, dried, and then stained with hematoxylin & Eosin and observed under a microscope.

[4] = tested on: DSS-induced chronic enteritis mouse model; test: Oral efficacy in DSS-induced chronic enteritis mouse model; format: in vivo, C57BL/6 mice; settings: chronic enteritis (DSS-water-DSS, total 35 days), mouse
Protocol: as §1, with “C57BL/6 mice” for “Sprague Dawley rats”, “7” for “3”
Enteritis was induced in mice by allowing them to freely ingest drinking water containing 2% DSS salt (M.W. 36,000˜50,000, MP Biomedicals, LLC, OH, USA). For the chronic enteritis model, DSS was administered using a schedule of DSS administration for the first 7 days, administration of normal drinking water for 14 days, repeated administration of DSS for 7 days from the 21st day, and administration of normal drinking water for 7 days. The drug was administered once a day, 6 days a week from the first day of DSS treatment (FIG. 2A). […] In order to measure the dose-dependent therapeutic effect of the drug in the acute enteritis model, DSS was administered for 5 days to induce enteritis, and then the drug was administered for 14 days to measure the degree of recovery and treatment of enteritis (FIG. 3A). The drug was administered orally once daily for […] at a fixed time.
Changes in body weight of each mouse were observed during the DSS and drug administration using a digital mass meter.
The colon of the mouse was extracted, and the length and weight from the anus to the cecum were measured.
Tissue staining was performed in the same manner as in the case of hematoxylin/eosin staining of the rat colon tissue, and scoring indexes of mucosal damage and recovery were applied in the same way.

[5] = oral 1 mg/kg, 5 days, fixed-dose test (Table 6)
[6] = 10 mg/kg, dose-dependence test (Table 7)

| SMILES | inhibition at 1 µM [1] | inhibition at 1 µM [2] | Body weight recovery rate (%) [3, 5] | Intestinal weight recovery rate (%) [3, 5] | other results |
| --- | --- | --- | --- | --- | --- |
| Cc1nc(NC(=O)c2cc3cc(Br)ccc3[nH]2)c(C)c(C)c1O [Compound X-07, 5-bromo-N-(5-hydroxy-3,4,6-trimethylpyridin-2-yl)-1H-indole-2-carboxamide] | 88.9% | 80.3% | 72.9% | 94.9% |  |
| Cc1nc(NC(=O)c2sc3cc(F)ccc3c2Cl)c(C)c(C)c1O [Compound X-24, 3-chloro-6-fluoro-N-(5-hydroxy-3,4,6-trimethylpyridin-2-yl)benzo[b]thiophene-2-carboxamide] |  |  | 86.6% | 97.4% | IC50 ([1]; inhibition of adhesion by TNF-α): 230 nM; Body weight recovery rate (%) ([4]; 1 mg/kg): 22.8%; Intestinal weight recovery rate (%) ([4]; 1 mg/kg): 58.1%; Body weight recovery rate (%) ([4]; 3 mg/kg): 73.3%; Intestinal weight recovery rate (%) ([4]; 3 mg/kg): 98.2% |
| C[C@]12C=CC(=O)C=C1CC[C@H]1[C@@H]3C[C@@H](O)[C@](O)(C(=O)CO)[C@@]3(C)C[C@H](O)[C@@]12F [Triamcinolone, reference compound] |  |  |  |  | Body weight recovery rate (%) [3, 6]: 70.0%; Intestinal weight recovery rate (%) [3, 6]: 84.5% |
| Cc1nc(NC(=O)c2sc3cc(F)ccc3c2Cl)c(C)c(C)c1OCC(=O)Nc1ccccc1 [XI-07, 3-chloro-6-fluoro-N-(3,4,6-trimethyl-5-(2-oxo-2-(phenylamino)ethoxy)pyridin-2-yl)benzo[b]thiophene-2-carboxamide] | 84.1% | 72.8% | 82.9% | 91.0% |  |
| Cc1nc(NC(=O)c2sc3cc(F)ccc3c2Cl)c(C)c(C)c1OC(=O)c1ccccc1 [XI-08, 6-(3-chloro-6-fluorobenzo[b]thiophene-2-carboxamido)-2,4,5-trimethylpyridin-3-yl benzoate] | 7.7% | 6.8% |  |  |  |
| Cc1nc(NC(=O)c2sc3cc(F)ccc3c2Cl)c(C)c(C)c1OC(=O)c1ccc(F)cc1 [XI-09, 6-(3-chloro-6-fluorobenzo[b]thiophene-2-carboxamido)-2,4,5-trimethylpyridin-3-yl 4-fluorobenzoate] | 3.4% | 21.2% |  |  |  |
| COc1cccc(C(=O)Oc2c(C)nc(NC(=O)c3sc4cc(F)ccc4c3Cl)c(C)c2C)c1 [XI-10, 6-(3-chloro-6-fluorobenzo[b]thiophene-2-carboxamido)-2,4,5-trimethylpyridin-3-yl 3-methoxybenzoate] | 46.5% | 13.1% |  |  |  |
| COc1ccc(C(=O)Oc2c(C)nc(NC(=O)c3sc4cc(F)ccc4c3Cl)c(C)c2C)cc1 [XI-11, 6-(3-chloro-6-fluorobenzo[b]thiophene-2-carboxamido)-2,4,5-trimethylpyridin-3-yl 4-methoxybenzoate] | 77.2% | 67% |  |  |  |
| Cc1nc(NC(=O)c2sc3cc(F)ccc3c2Cl)c(C)c(C)c1OC(=O)c1ccc(F)cn1 [XI-12, 6-(3-chloro-6-fluorobenzo[b]thiophene-2-carboxamido)-2,4,5-trimethylpyridin-3-yl 5-fluoropicolinate] | 31.9% | 18% |  |  |  |
| Cc1nc(NC(=O)c2sc3cc(F)ccc3c2Cl)c(C)c(C)c1OC(=O)c1ccc(F)nc1 [XI-13, 6-(3-chloro-6-fluorobenzo[b]thiophene-2-carboxamido)-2,4,5-trimethylpyridin-3-yl 6-fluoronicotinate] | 20.7% | 15.2% |  |  |  |
| Cc1nc(NC(=O)c2sc3cc(F)ccc3c2Cl)c(C)c(C)c1OC(=O)c1ccc(Cl)cn1 [XI-14, 6-(3-chloro-6-fluorobenzo[b]thiophene-2-carboxamido)-2,4,5-trimethylpyridin-3-yl 5-chloropicolinate] | 38.1% | 26.8% |  |  |  |
| Cc1nc(NC(=O)c2sc3cc(F)ccc3c2Cl)c(C)c(C)c1OC(=O)C12CC3CC(CC(C3)C1)C2 [XI-16, 6-(3-chloro-6-fluorobenzo[b]thiophene-2-carboxamido)-2,4,5-trimethylpyridin-3-yl (3r,5r,7r)-adamantane-1-carboxylate] | 29.2% | 20.3% |  |  |  |
| Cc1nc(NC(=O)c2sc3cc(F)ccc3c2Cl)c(C)c(C)c1OC(=O)N1CCOCC1 [XI-17, 6-(3-chloro-6-fluorobenzo[b]thiophene-2-carboxamido)-2,4,5-trimethylpyridin-3-yl morpholine-4-carboxylate] | ≥ 50% | 59.6% | 60.2% | 79.8% |  |
